# Legend:
# [1] = test system: Farage; test: Growth inhibition assay for NHL lines; format: cell-based; conditions: NHL DLBCL, 96 hours, n ≧ 3
# Experimental: (§1) Growth Inhibition Assay for HCC and NHL Lines. The seeding density for each cell line was optimized to ensure assay linearity in 384-well plates.
# (§2) Compound 1 was dissolved in dimethyl sulfoxide (DMSO) to prepare a 10 mM stock solution. A serial titration was performed to produce a working concentration range of […] to 10 mM. Aliquots to produce final concentrations of 1.5 nM to 10 μM were spotted via an acoustic dispenser (EDC ATS-100) into an empty 384-well plate. Compound 1 was spotted in a 10-point serial dilution fashion (3-fold dilution) in duplicate within the plate. The DMSO concentration was kept constant for a final assay concentration of 0.1% DMSO. Plates were replicated for use with different cell lines and testing periods. After compound plate replication, all plates were sealed (Agilent ThermoLoc) and stored at −20° C. for up to 1 month. […] When ready for testing, plates were removed from the freezer, thawed, and unsealed just prior to the addition of the test cells. Prior to testing, cells were grown and expanded in culture flasks to provide sufficient amounts of starting material. Cells were then diluted to the appropriate densities and added directly to the compound-spotted 384-well plates. Cells were allowed to grow for 96 hours at 37° C./5% CO2. At the time when compound was added (t0), initial cell number was assessed via a viability assay (Cell Titer-Glo) by quantifying the level of luminescence generated by ATP present in viable cells. After 96 hours, cell viability of compound-treated cells was assessed via Cell Titer-Glo and luminescence measurement. Cell lines were assayed for growth inhibition by Compound 1 in at least 3 independent tests. A control cell line (the lung tumor cell line, A549) was included in each of the assays. The compound response against this control cell line was monitored closely to enable comparison of the data generated through the assay period. All data were normalized and presented as a percentage of the DMSO-treated cells. Results were then expressed as a GI50 value. The GI50 value corrects for the cell count at time zero. In addition, the IC50 value of Compound 1 for each cell line was calculated.
# [2] = test system: JVM-2; test: Growth inhibition assay for NHL lines; format: cell-based; conditions: JVM-2, NHL MCL, 96 hours, n ≧ 3
# Experimental: as §1, §2
# [3] = test system: MOLM-13; test: Growth inhibition assay for NHL lines; format: cell-based; conditions: MOLM-13, Leukemia M-AML, 96 hours, n ≧ 3
# Experimental: as §1, §2
# [4] = test system: Mino; test: Growth inhibition assay for NHL lines; format: cell-based; conditions: NHL MCL, 96 hours, n ≧ 3
# Experimental: as §1, §2
# [5] = test system: OCI-LY-3; test: Growth inhibition assay for NHL lines; format: cell-based; conditions: OCI-LY-3, NHL DLBCL, 96 hours, n ≧ 3
# Experimental: as §1, §2
# [6] = test system: SU-DHL-4; test: Growth inhibition assay for NHL lines; format: cell-based; conditions: SU-DHL-4, NHL DLBCL, 96 hours, n ≧ 3
# Experimental: as §1, §2
# [7] = test system: SU-DHL-6; test: Growth inhibition assay for NHL lines; format: cell-based; conditions: SU-DHL-6, NHL DLBCL, 96 hours, n ≧ 3
# Experimental: as §1, §2
# [8] = test system: THP-1; test: Growth inhibition assay for NHL lines; format: cell-based; conditions: THP-1, Leukemia M-AML, 96 hours, n ≧ 3
# Experimental: as §1, §2
# [9] = test system: U-2932; test: Growth inhibition assay for NHL lines; format: cell-based; conditions: U-2932, NHL DLBCL, 96 hours, n ≧ 3
# Experimental: as §1, §2
# [10] = test system: U-2940; test: Growth inhibition assay for NHL lines; format: cell-based; conditions: U-2940, NHL DLBCL, 96 hours, n ≧ 3
# Experimental: as §1, §2
# [11] = test system: U87MG tumors; test: CD31 immunohistochemistry in U87MG tumors; format: in vivo, mice; conditions: 5 mg/kg BID oral for 4 days; p<0.001
# Experimental: Mechanism of action studies. To determine the mechanism of action of Compound 1, mice bearing U87MG tumors of approximately 500 mm^3 were dosed orally with vehicle or Compound 1 at 5 mg/kg BID for 4 days. The positive control, rapamycin, was dosed at 4 mg/kg Q3D for 4 days. Two hours after the 7th dose of Compound 1 on day 4, animals were euthanized and tumors were dissected out and snap frozen in liquid nitrogen. In the rapamycin-treated group tumors were collected at 2 hour after the 2nd dose on day 4. The tumors were processed for immunohistochemistry (IHC) or TUNEL.
# Immunohistochemistry. Five to ten micron (5-10 μm) thick cryostat sections were used for IHC. The expression of the cell proliferation marker Ki67 was evaluated by IHC using anti-Ki67 antibody. […] The sections were visualized with a Nikon E800 microscope equipped with fluorescence detection equipment and a digital camera attached to a computer.
# Quantitation of Immunohistochemistry. The tissues sections processed for apoptosis or immunostained for proliferating cells (Ki67) or blood vessels were quantitated using Metamorph software. Using 20× objective, 5 different fields from each section, 2-4 sections from each tumor, and 3-4 tumors from each treatment group or control were used for quantitation. The area of interest was expressed as the percent threshold area of the total area. […]
structure (smiles),measurement,setting,value
"CO[C@H]1CC[C@H](N2C(=O)CNc3ncc(-c4ccc(C(C)(C)O)nc4)nc32)CC1 [Compound 1, 7-(6-(2-hydroxypropan-2-yl)pyridin-3-yl)-1-((1r,4r)-4-methoxycyclohexyl)-3,4-dihydropyrazino-[2,3-b]pyrazin-2(1H)-one]",GI50,[1],270 ± 30 nM
same,IC50,[1],280 ± 40 nM
same,GI50,[2],260 ± 50 nM
same,IC50,[2],440 ± 180 nM
same,GI50,[3],110 ± 20 nM
same,IC50,[3],140 ± 20 nM
same,GI50,[4],370 ± 130 nM
same,IC50,[4],480 ± 100 nM
same,GI50,[5],210 ± 60 nM
same,IC50,[5],290 ± 70 nM
same,GI50,[6],110 ± 40 nM
same,IC50,[6],120 ± 50 nM
same,GI50,[7],160 ± 40 nM
same,IC50,[7],200 ± 60 nM
same,GI50,[8],230 ± 110 nM
same,IC50,[8],570 ± 160 nM
same,GI50,[9],300 ± 30 nM
same,IC50,[9],450 ± 10 nM
same,GI50,[10],110 ± 70 nM
same,IC50,[10],180 ± 100 nM
same,reduction of CD31-positive blood vessels compared with vehicle,[11],50%
